The first data set concerns Rattus norvegicus. Nature of the data set: Estrogenic activity in Sprague-Dawley rat at 10 mg/kg/day, po. The class given is ADME, organism-based. Also noted: route oral. As to conditions: in vivo.
With `CCOC(=O)CC(=O)COc1ccc(C)cc1`, the Activity result is reported as “Non-toxic”.

As to `O=C(COc1ccc([N+](=O)[O-])cc1)COc1ccc([N+](=O)[O-])cc1`, the Activity result is on record as “Non-toxic”.

In the case of `O=C(COc1ccc(Cl)c2ccccc12)COc1ccc(Cl)c2ccccc12`, the Activity result is on record as “Non-toxic”.

For the compound `CCCCCCCCCCCCCCCCCCOCC(=O)COc1ccc(C)cc1`, the Activity result is given as “Non-toxic”.

Turning to `Cc1ccc(OC(C)C(=O)C(C)Oc2ccc(C)cc2)cc1` (stereo unspecified), the Activity entry is given as “Non-toxic”.

Consider `CC(=O)COc1ccc(C)cc1`, for which the Activity result is “Non-toxic”.

For `Cc1ccc(OCC(=O)CO)cc1`, the Activity result is on record as “Non-toxic”.

Consider `COc1cccc(OCC(=O)COc2cccc(OC)c2)c1`, for which the Activity entry is on record as “Non-toxic”.

Turning to `O=C(COc1ccc2c(c1)CCC2)COc1ccc2c(c1)CCC2`, the Activity entry was “Non-toxic”.

`CCOC(=O)C(C)(C)Oc1ccc(Cl)cc1` [CLOFIBRATE]: the Activity result is given as “Non-toxic”.

With `O=C(CCl)COc1cccc2ccccc12`, the Activity entry is given as “Non-toxic”.

Consider `Cc1ccccc1OCC(=O)COC(=O)c1ccc(Cl)cc1`, for which the Activity result was “Non-toxic”.

With `CCOC(COc1cc(C)c(C)cc1Cl)(COc1cc(C)c(C)cc1Cl)OCC`, the Activity result is listed as “Non-toxic”.

Consider `CCCCCCCCCCCCCCC(=O)COc1ccc(C)cc1`, for which the Activity result is “Non-toxic”.

As for `CCCCCCCCCCCCC(OC(C)=O)S(C)(=O)=O` (stereo unspecified), the Activity entry is given as “Non-toxic”.

Take `Cc1ccc(OCC2CO2)cc1` (stereo unspecified): the Activity result was “Non-toxic”.

Consider `CCCCCOCC(=O)COCCCCC`, for which the Activity entry is on record as “Non-toxic”.

Regarding `CC(=O)COc1ccc([N+](=O)[O-])cc1`, the Activity entry was “Non-toxic”.

For `O=C(COc1ccc(-c2ccccc2)cc1)COc1ccc(-c2ccccc2)cc1`, the Activity result is listed as “Non-toxic”.

Take `O=C(CCl)COc1ccc([N+](=O)[O-])cc1`: the Activity result is listed as “Non-toxic”.

Another data set relates to Rattus norvegicus. Nature of the data set: Toxicity in Sprague-Dawley rat at 10 mg/kg/day, po. Also noted: route oral. As to conditions: in vivo. Type of data set: organism-based.
Take `CCOC(=O)CC(=O)COc1ccc(C)cc1`: the Activity result is recorded as “Non-toxic”.

Take `O=C(COc1ccc([N+](=O)[O-])cc1)COc1ccc([N+](=O)[O-])cc1`: the Activity result is “Non-toxic”.

Turning to `O=C(COc1ccc(Cl)c2ccccc12)COc1ccc(Cl)c2ccccc12`, the Activity entry is “Non-toxic”.

For `CCCCCCCCCCCCCCCCCCOCC(=O)COc1ccc(C)cc1`, the Activity result was “Non-toxic”.

As to `Cc1ccc(OC(C)C(=O)C(C)Oc2ccc(C)cc2)cc1` (stereo unspecified), the Activity result was “Non-toxic”.

For the compound `CC(=O)COc1ccc(C)cc1`, the Activity result was “Non-toxic”.

With `Cc1ccc(OCC(=O)CO)cc1`, the Activity result is listed as “Non-toxic”.

`COc1cccc(OCC(=O)COc2cccc(OC)c2)c1`: the Activity entry is “Non-toxic”.

Regarding `O=C(COc1ccc2c(c1)CCC2)COc1ccc2c(c1)CCC2`, the Activity entry was “Non-toxic”.

Consider `CCOC(=O)C(C)(C)Oc1ccc(Cl)cc1` [CLOFIBRATE], for which the Activity entry is on record as “Non-toxic”.

With `O=C(CCl)COc1cccc2ccccc12`, the Activity entry was “Non-toxic”.

On to `Cc1ccccc1OCC(=O)COC(=O)c1ccc(Cl)cc1`, for which the Activity entry is “Non-toxic”.

For the compound `CCOC(COc1cc(C)c(C)cc1Cl)(COc1cc(C)c(C)cc1Cl)OCC`, the Activity result is “Non-toxic”.

Regarding `CCCCCCCCCCCCCCC(=O)COc1ccc(C)cc1`, the Activity result is given as “Non-toxic”.

Consider `CCCCCCCCCCCCC(OC(C)=O)S(C)(=O)=O` (stereo unspecified), for which the Activity entry was “Non-toxic”.

For the compound `Cc1ccc(OCC2CO2)cc1` (stereo unspecified), the Activity result is recorded as “Non-toxic”.

For `CCCCCOCC(=O)COCCCCC`, the Activity result is given as “Non-toxic”.

Turning to `CC(=O)COc1ccc([N+](=O)[O-])cc1`, the Activity result is “Non-toxic”.

For the compound `O=C(COc1ccc(-c2ccccc2)cc1)COc1ccc(-c2ccccc2)cc1`, the Activity entry is reported as “Non-toxic”.

Another data set relates to Rattus norvegicus. Nature of the data set: Toxicity in Sprague-Dawley rat at 10 mg/kg/day, po administered for 4 days. The class given is organism-based. Further details: route oral. The conditions noted are these: in vivo, 96 h.
In the case of `O=C(CCl)COc1ccc([N+](=O)[O-])cc1`, the Activity result is “Toxic”.

The next data set has as its system Rattus norvegicus. As to the kind of experiment: Toxicity in Sprague-Dawley rat at 10 mg/kg/day, po administered for 10 days. The conditions noted are these: in vivo, 240 h. The class given is organism-based. Also noted: route oral.
With `O=C(CCl)COc1ccc([N+](=O)[O-])cc1`, the Activity result is given as “Toxic”.

Test system in another data set: not listed separately
Nature of the data set: 1-Octanol-water partition coefficient, log P of the compound by UV spectrophotometer. Type of data set: physicochemical.
Settings: not given
The compound `O=C(COc1ccccc1)COc1ccccc1` gave a log partition coefficient (logP) of less than 2.69.

Consider `COc1ccccc1OCC(=O)COc1ccccc1OC`, for which the logP was less than 2.69.

As for `CCOC(COc1cc(C)c(C)cc1Cl)(COc1cc(C)c(C)cc1Cl)OCC`, the logP was found to be 2.69.

`Cc1ccc(OCC2CO2)cc1` (stereo unspecified) came in with a lipophilicity (logP) of 2.69.

A further data set concerns Rattus norvegicus. As to the kind of experiment: Toxicity in Sprague-Dawley rat at 10 mg/kg/day, po administered for 16 days. The class given is organism-based. Also noted: route oral. The conditions noted are these: in vivo, 384 h.
On to `O=C(CCl)COc1ccc([N+](=O)[O-])cc1`, for which the Activity result is reported as “Toxic”.

As a reminder, the logP is a log measure of how a compound divides between an organic and an aqueous phase. A lower logP goes with lower lipophilicity.

For the origin of these results see ChEMBL document CHEMBL3243968, “Effects of molecular modification on hypocholesteremic activity of 1,3-bis(substituted phenoxy)-2-propanones and related derivatives” (J Med Chem, 1978).
